In patent US8722580B2, “Agent for inhibiting cytokinin signaling” (Sumitomo Chemical Company, Limited, priority 2006, dated 2014):

Legend:
Arabidopsis thaliana [1] = experiment: Root growth-promoting activity test (Example 22); format: in vivo; settings: main root length vs control section, 22° C., 10 days
Description: (§1) Enshi standard medium having the following composition (see Table 18) was prepared. To cluster tubes was dispensed each 4 μl of a solution of a chemical substance in DMSO to a final concentration of 0.001 ppm to 10 ppm, and then, was dispensed each 600 μl of the sterilized Enshi standard medium. Then the resulting solution was well mixed. In each of the cluster tubes, 10-20 seeds of Arabidopsis thaliana were sown, and cultured at 22° C. for 10 days in the light. Then, the length of main roots (average main roots) generated from the seeds of Arabidopsis thaliana was measured. An average of eight repeats was determined, and a root growth rate was determined according to the following equation.
(§2) Root growth rate (%)=(Average main root length in chemical substance-treated section)/(Average main root length in control section)×100
Enshi standard medium determined having the following composition (Table 18) was prepared. A DMSO solution of a chemical substance was dispensed by 4 μl to cluster tubes to a final concentration of 0.001 ppm to 10 ppm and the sterilized Enshi standard medium was dispensed by 600 μl and then the resulting solution was well mixed. 10-20 seeds of A. thaliana per cluster tube were sown in the cluster tubes. After culture at 22° C. for 10 days in bright light, the length of main roots (average main roots) took from seeds of A. thaliana was measured. An average of eight repeats was determined and the root growth rate was determined.
Root growth rate (%)=(Average main root length of chemical substance-treated section)/(Average main root length of control section)×100

Arabidopsis thaliana [2] = experiment: Root growth-promoting activity test (Example 9); format: in vivo; settings: main root length vs control section, 22° C., 10 days
Description: as §1, with “10)” for “18)”
as §2

cytokinin receptor CRE1 = molecular target: T1, cytokinin receptor CRE1 (Arabidopsis thaliana, UniProt Q9C5U0, S567G/T1018A); experiment: Inhibition of intracellular signaling from plant-derived cytokinin receptor, growth of transformed yeast cell TM182-CRE1; format: cell-based; settings: trans-zeatin 0.6 ppm, chemical substance 2 ppm; for Relative growth rate (%) in test section of test substance to control section, Transformed cell TM182-CRE1: 30° C., 24 hours, turbidity OD 600; for Activity (%) of test substance for inhibiting intracellular signaling from plant-derived cytokinin receptor of cell: = 100 − relative growth rate of TM182-CRE1
T1 construct: expressed in transfected cells; host or cells: Saccharomyces cerevisiae TM182 (sln1Δ) transformed with p415CYC-CRE1
Description: (§3) The transformed cell TM182-CRE1 and the transformed cell TM182-p415CYC1 obtained in Example 6 were each inoculated in 10 ml of a DOLU+Gal medium, and preincubated at 30° C. for 18 hours to obtain a preincubation liquid for each of the transformed cells. The preincubation liquid was diluted with a DOLU+Glu medium for the transformed cell TM182-CRE1 or with a DOLU+Gal medium for the transformed cell TM182-p415CYC1 until OD600=0.1 was reached, to obtain a preincubation dilution for each of the transformed cells.
(§4) To each well of a 96-well plate was added 1 μl of a 200 ppm solution of a test substance in dimethyl sulfoxide (DMSO) to prepare an Assay plate. At the same time, as controls, only 1 μl of DMSO was added to a part of wells. An assay plate for the transformed cell TM182-CRE1 and an assay plate for the transformed cell TM182-p415CYC1 were prepared.
(§5) A 10,000 ppm solution of trans-zeatin (cytokinin) in DMSO was 50-fold diluted with a DOLU+Gul medium to 200 ppm. The 200 ppm trans-zeatin solution was added in an amount of 3/1,000 volume to each of the above-described preincubation dilution to prepare each preincubation dilution containing trans-zeatin at 0.6 ppm. The 0.6 ppm preincubation dilution was added in an amount of 100 μl to each wells of the assay plate for each transformed cell. The plates were incubated at 30° C. for 24 hours. Then, turbidity (OD 600) of each well was measured by using a plate reader. The activity of the test substance for inhibiting intracellular signaling from a plant-derived cytokinin receptor of a cell was tested by comparing the measured turbidity with the turbidity of the control well.
(§6) (Relative growth rate in test section to control section) [%]=[(Turbidity in test section)−(Turbidity in blank)]/[(Turbidity in control section)−(Turbidity in blank)]×100 (Activity of inhibiting intracellular signaling from plant-derived cytokinin receptor of cell) [%]=100−(Relative growth rate in test section to control section)
(§7) In all cases, the existing concentration of trans-zeatin was adjusted to 0.6 ppm and the existing concentration of a chemical substance was adjusted to 2 ppm.
(§8) In all cases, the existing concentration of trans-zeatin was adjusted to 0.6 ppm and the existing concentration of a chemical substance was adjusted to 2 […].

[3] = tested on: transformed cell TM182-p415CYC1; experiment: Control growth test with transformed yeast cell TM182-p415CYC1 (toxicity to yeast); format: cell-based; settings: trans-zeatin 0.6 ppm; chemical substance 2 ppm; 30° C., 24 hours; turbidity OD 600
Description: as §3, §4, §5, §6, §7, §8

[4] = test final concentration 2.5 ppm (highest root growth rate)
[5] = test final concentration 2.5 ppm (concentration with highest root growth rate)
[6] = test final concentration 0.625 ppm (concentration with highest root growth rate)
[7] = test final concentration 1.25 ppm (highest root growth rate)
[8] = test final concentration 1.25 ppm (concentration with highest root growth rate)
[9] = test final concentration 10 ppm (highest root growth rate)
[10] = test final concentration 10 ppm (concentration with highest root growth rate)

T1 sequence (Q9C5U0 24-1080 S567G/T1018A): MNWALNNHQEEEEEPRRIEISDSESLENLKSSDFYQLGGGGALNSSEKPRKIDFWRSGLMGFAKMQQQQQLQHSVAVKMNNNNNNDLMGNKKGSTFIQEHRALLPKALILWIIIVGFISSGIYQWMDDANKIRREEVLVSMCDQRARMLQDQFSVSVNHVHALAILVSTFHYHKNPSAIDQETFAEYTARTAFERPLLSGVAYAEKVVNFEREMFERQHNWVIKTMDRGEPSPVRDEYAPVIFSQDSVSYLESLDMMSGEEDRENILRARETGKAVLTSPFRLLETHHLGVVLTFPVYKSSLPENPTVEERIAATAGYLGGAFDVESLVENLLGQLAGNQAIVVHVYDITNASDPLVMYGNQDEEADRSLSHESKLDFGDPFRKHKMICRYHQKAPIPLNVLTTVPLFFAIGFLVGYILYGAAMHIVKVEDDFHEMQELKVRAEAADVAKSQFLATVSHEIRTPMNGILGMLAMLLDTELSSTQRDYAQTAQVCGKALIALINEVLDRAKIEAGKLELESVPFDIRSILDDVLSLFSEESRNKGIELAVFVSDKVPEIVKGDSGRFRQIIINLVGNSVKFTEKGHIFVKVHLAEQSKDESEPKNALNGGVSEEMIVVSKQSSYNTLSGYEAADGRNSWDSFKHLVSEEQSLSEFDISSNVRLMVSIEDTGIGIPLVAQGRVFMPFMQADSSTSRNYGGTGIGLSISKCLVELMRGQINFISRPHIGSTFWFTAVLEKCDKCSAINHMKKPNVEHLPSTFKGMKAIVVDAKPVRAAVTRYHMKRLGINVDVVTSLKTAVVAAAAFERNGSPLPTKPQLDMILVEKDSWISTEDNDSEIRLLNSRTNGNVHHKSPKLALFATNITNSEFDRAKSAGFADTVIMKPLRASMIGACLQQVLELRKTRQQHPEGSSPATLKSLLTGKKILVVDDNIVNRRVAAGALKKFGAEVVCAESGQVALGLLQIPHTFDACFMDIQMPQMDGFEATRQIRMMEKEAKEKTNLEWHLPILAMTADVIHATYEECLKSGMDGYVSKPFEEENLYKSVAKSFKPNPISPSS

Row | SMILES | Relative growth rate (%) in test section of test substance to control section, Transformed cell TM182-CRE1 (cytokinin receptor CRE1) [%] | Activity (%) of test substance for inhibiting intracellular signaling from plant-derived cytokinin receptor of cell (cytokinin receptor CRE1) [%] | Relative growth rate (%) in test section of test substance to control section, Transformed cell TM182-p415CYC1 [3] [%] | Root growth-promoting activity (root growth rate) (Arabidopsis thaliana [2]; [10]) [%] | further results
1 | OCCCNc1nc(-c2ccccc2)c2c(Cl)cccc2n1 [Ic1-1] | – | – | – | – | Root growth-promoting activity (root growth rate) (Arabidopsis thaliana [1]; [4]): 150.9%; Root growth-promoting activity (root growth rate) (Arabidopsis thaliana [2]; [5]): 150.9%
2 | OCCCCCNc1nc(-c2ccccc2)c2cc(Cl)ccc2n1 [Ic3-5] | 3.5 | 96.5 | 115.4 | – | Root growth-promoting activity (root growth rate) (Arabidopsis thaliana [1]; test final concentration 0.625 ppm (highest root growth rate)): 134.0%; Root growth-promoting activity (root growth rate) (Arabidopsis thaliana [2]; [6]): 134.0%
3 | CN(CCO)c1nc(-c2ccccc2)c2cc(Cl)ccc2n1 [Ic3-6] | 2.8 | 97.2 | 114.6 | – | Root growth-promoting activity (root growth rate) (Arabidopsis thaliana [2]; [6]): 122.4%
4 | COCCNc1nc(-c2ccccc2)c2cc(Cl)ccc2n1 [Ic3-7] | 2.8 | 97.2 | 104.1 | – | Root growth-promoting activity (root growth rate) (Arabidopsis thaliana [1]; [7]): 142.5%; Root growth-promoting activity (root growth rate) (Arabidopsis thaliana [2]; [8]): 142.5%
5 | CCCNc1nc(-c2ccccc2)c2cc(Cl)ccc2n1 [Ic3-8] | – | – | – | – | Root growth-promoting activity (root growth rate) (Arabidopsis thaliana [1]; [7]): 136.4%; Root growth-promoting activity (root growth rate) (Arabidopsis thaliana [2]; [8]): 136.4%
6 | CC(C)CCNc1nc(-c2ccccc2)c2cc(Cl)ccc2n1 [Ic3-10] | – | – | – | 120.6 | Root growth-promoting activity (root growth rate) (Arabidopsis thaliana [1]; [9]): 120.6%
7 | OCCCCCCNc1nc(-c2ccccc2)c2cc(Cl)ccc2n1 [Ic3-11] | 3.9 | 96.1 | 84.6 | – | Root growth-promoting activity (root growth rate) (Arabidopsis thaliana [1]; [7]): 128.2%; Root growth-promoting activity (root growth rate) (Arabidopsis thaliana [2]; [8]): 128.2%
8 | CC(CO)CCNc1nc(-c2ccccc2)c2cc(Cl)ccc2n1 (centres unmarked) [Ic3-12] | 5.6 | 94.4 | 90.9 | – | Root growth-promoting activity (root growth rate) (Arabidopsis thaliana [1]; [7]): 128.9%; Root growth-promoting activity (root growth rate) (Arabidopsis thaliana [2]; [8]): 128.9%
9 | CC(C)=CCNc1nc(-c2ccccc2)c2cc(Cl)ccc2n1 [Ic3-17] | – | – | – | 121.3 | Root growth-promoting activity (root growth rate) (Arabidopsis thaliana [1]; [9]): 121.3%
10 | Nc1nc(-c2ccccc2)c2cc(Cl)ccc2n1 [Ic3-19] | 2.4 | 97.6 | 102.7 | – | Root growth-promoting activity (root growth rate) (Arabidopsis thaliana [2]; [8]): 155.6%
11 | NNc1nc(-c2ccccc2)c2cc(Cl)ccc2n1 [Ic3-20] | 5.0 | 95.0 | 86.5 | 137.8 | –
12 | CN(C)CCNc1nc(-c2ccccc2)c2cc(Cl)ccc2n1 [Ic3-21] | 5.0 | 95.0 | 121.6 | – | Root growth-promoting activity (root growth rate) (Arabidopsis thaliana [2]; [5]): 131.7%
13 | NCCCCNc1nc(-c2ccccc2)c2cc(Cl)ccc2n1 [Ic3-22] | 4.9 | 95.1 | 110.6 | – | Root growth-promoting activity (root growth rate) (Arabidopsis thaliana [2]; test final concentration 0.156 ppm (concentration with highest root growth rate)): 129.3%
14 | CNc1nc(-c2ccccc2)c2cc(Cl)ccc2n1 [Ic3-23] | 4.1 | 95.9 | 108.1 | 150.0 | –
15 | CN(C)c1nc(-c2ccccc2)c2cc(Cl)ccc2n1 [Ic3-25] | 6.0 | 94.0 | 122.0 | 140.0 | –
16 | N#CCNc1nc(-c2ccccc2)c2cc(Cl)ccc2n1 [Ic3-26] | 5.3 | 94.7 | 110.7 | – | Root growth-promoting activity (root growth rate) (Arabidopsis thaliana [2]; test final concentration 5 ppm (concentration with highest root growth rate)): 136.4%
17 | CC(C)Nc1nc(-c2ccccc2)c2cc(Cl)ccc2n1 [Ic3-28] | – | – | – | 120.4 | Root growth-promoting activity (root growth rate) (Arabidopsis thaliana [1]; [9]): 120.4%
18 | Cc1ccc2nc(NCCCO)nc(-c3ccccc3)c2c1 [Ic5-5] | 7.2 | 92.8 | 126.3 | – | Root growth-promoting activity (root growth rate) (Arabidopsis thaliana [2]; [5]): 157.8%
19 | OCCCNc1nc(-c2ccccc2)c2cc(C(F)(F)F)ccc2n1 [Ic6-2] | – | – | – | – | Root growth-promoting activity (root growth rate) (Arabidopsis thaliana [1]; [4]): 155.9%; Root growth-promoting activity (root growth rate) (Arabidopsis thaliana [2]; [5]): 155.9%
20 | N#Cc1ccc2nc(NCCCO)nc(-c3ccccc3)c2c1 [Ic9-1] | – | – | – | 141.5 | Root growth-promoting activity (root growth rate) (Arabidopsis thaliana [1]; [9]): 141.5%
21 | OCCCNc1nc(-c2ccccc2)c2ccc(Cl)cc2n1 [Ic10-1] | – | – | – | 163.6 | Root growth-promoting activity (root growth rate) (Arabidopsis thaliana [1]; [9]): 163.6%
22 | Clc1cc(Cl)c2nc(NCc3ccco3)nc(-c3ccccc3)c2c1 [Ic12-3] | – | – | – | – | Root growth-promoting activity (root growth rate) (Arabidopsis thaliana [1]; [4]): 138.8%; Root growth-promoting activity (root growth rate) (Arabidopsis thaliana [2]; [5]): 138.8%
